Laboratory results from the Kinase Knowledgebase extract (Sharma et al. 2016).

Biological target: MAPK14 (human) (UniProt Q16539)
Assay: Assessment of MAPK14 Kinase Activity

Chain of MAPK14 (human) (Q16539 whole entry, looked up): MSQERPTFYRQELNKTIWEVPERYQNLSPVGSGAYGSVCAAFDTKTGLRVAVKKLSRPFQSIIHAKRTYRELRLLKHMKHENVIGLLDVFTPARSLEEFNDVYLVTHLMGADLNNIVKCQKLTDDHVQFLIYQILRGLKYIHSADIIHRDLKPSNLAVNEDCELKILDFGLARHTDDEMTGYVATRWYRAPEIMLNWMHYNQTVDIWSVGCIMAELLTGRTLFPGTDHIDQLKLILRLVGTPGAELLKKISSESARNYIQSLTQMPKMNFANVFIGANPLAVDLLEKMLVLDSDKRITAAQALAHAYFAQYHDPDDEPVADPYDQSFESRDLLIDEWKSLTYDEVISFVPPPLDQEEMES

Structure (SMILES) | IC50 [nM]
Cc1ccc(NC(=O)Nc2sc(C(C)(C)C)cc2C(=O)N2CCNC(=O)C2(C)C)cc1C#C[Si](C)(C)C | < 100
Cc1ccc(NC(=O)Nc2cn(C(C)(C)C)nc2C(=O)N2CCN(C)C(=O)C2(C)C)cc1-c1ccc(N2CCOCC2)cn1 | < 100
Cc1ccc(NC(=O)Nc2sc(C(C)(C)C)nc2C(=O)N2CCN(C)C(=O)C2(C)C)cc1-c1ccc(CN2CCOCC2)cn1 | < 100
Cc1ccc(NC(=O)Nc2sc(C(C)(C)C)cc2C(=O)N2CCNC(=O)C2(C)C)cc1C#CCOC1CCOCC1 | < 100
Cc1ccc(NC(=O)Nc2sc(C(C)(C)C)cc2C(=O)N2CCC(=O)N(C)CC2)cc1-c1ccc(N2CCOCC2)cn1 | < 100
CCOc1ccc(-c2cc(NC(=O)Nc3cn(C(C)(C)C)nc3C(=O)N3CCN(C)C(=O)C3(C)C)ccc2C)cn1 | < 100
CON(C)C(=O)c1ccc(-c2cc(NC(=O)Nc3sc(C(C)(C)C)cc3C(=O)N3CCN(C)C(=O)C3(C)C)ccc2C)cn1 | < 100
Cc1ccc(NC(=O)Nc2cn(C(C)(C)C)nc2C(=O)N2CCNC(=O)C2(C)C)cc1-c1ccc(CN2CCOCC2)cn1 | < 100
Cc1ccc(NC(=O)Nc2cc(C(C)(C)C)sc2C(=O)N2CCN(C(C)C)C(=O)C2(C)C)cc1-c1ccc(CN2CCOCC2)nc1 | < 100
Cc1nc(-c2cccc(NC(=O)Nc3sc(C(C)(C)C)cc3C(=O)N3CCNC(=O)C3(C)C)c2)cs1 | < 100
CC(C)(C)c1cc(C(=O)N2CCNC(=O)C2(C)C)c(NC(=O)Nc2cccc(-c3ccnc(F)c3)c2)s1 | < 100
Cc1ccc(NC(=O)Nc2oc(C(C)(C)C)cc2C(=O)N2CCNC(=O)C2(C)C)cc1-c1ccncc1 | < 100
COc1ccc(-c2cc(NC(=O)Nc3cc(C(C)(C)C)sc3C(=O)N3CCN(CCO)C(=O)C3(C)C)ccc2C)cn1 | < 100
COc1ccc(NC(=O)Nc2sc(C(C)(C)C)cc2C(=O)N2CCNC(=O)C2(C)C)c(C)c1-c1ccncc1 | < 100
COc1ccc(-c2cc(NC(=O)Nc3cc(C(C)(C)C)sc3C(=O)N3CCN(C)C(=O)C3(C)C)cc(F)c2C)cn1 | < 100
CN1CCN(CCCOc2ccc(-c3cccc(NC(=O)Nc4sc(C(C)(C)C)cc4C(=O)N4CCNC(=O)C4(C)C)c3)cn2)CC1 | < 100

Structure (SMILES) | IC50 [nM]
CCc1ccc(-c2cc(NC(=O)Nc3sc(C(C)(C)C)cc3C(=O)N3CCN(C)C(=O)C3(C)C)ccc2C)nc1 | < 100
Cc1ccc(NC(=O)Nc2cn(C(C)(C)C)nc2C(=O)N2CCNC(=O)C2(C)C)cc1-c1cccnc1 | < 100
Cc1nnc(CN2CCN(C(=O)c3cc(C(C)(C)C)sc3NC(=O)Nc3ccc(C)c(-c4ccncc4)c3)C(C)(C)C2=O)o1 | < 100
CC(C)(C)c1cc(C(=O)N2CCNC(=O)C2(C)C)c(NC(=O)Nc2cccc(-c3cccnc3)c2)s1 | < 100
COc1ccc(-c2cc(NC(=O)Nc3sc(C(C)(C)C)cc3C(=O)N3CCC(=O)N(C)CC3)ccc2C)cn1 | < 100
Cc1ccc(NC(=O)Nc2cc(C(C)(C)C)sc2C(=O)N2CCN(C)C(=O)C2)cc1-c1ccc(CN2CCOCC2)nc1 | < 100
Cc1ccc(NC(=O)Nc2cn(C(C)(C)C)nc2C(=O)N2CCNC(=O)C2(C)C)cc1-c1ccc(C(C)C)nc1 | < 100
Cc1ccc(NC(=O)Nc2sc(C(C)(C)C)cc2C(=O)N2CCN(C)C(=O)C2(C)C)cc1-c1cnc(NCC(O)CO)nc1 (stereo not given) | < 100
Cc1ccc(NC(=O)Nc2sc(C(C)(C)C)cc2C(=O)N2CCNS(=O)(=O)CC2)cc1-c1ccc(CN2CCOCC2)nc1 | < 100
Cc1nnc(-c2ccc(-c3cc(NC(=O)Nc4cc(C(C)(C)C)sc4C(=O)N4CCN(C)C(=O)C4(C)C)ccc3C)cn2)o1 | < 100
Cc1ccc(NC(=O)Nc2sc3c(c2C(=O)N2CCN(C)C(=O)C2(C)C)CCOC3)cc1-c1ccc(CN2CCOCC2)nc1 | 100 to 1000
CC(C)(C)c1cc(C(=O)N2CCNC(=O)C2(C)C)c(NC(=O)Nc2cccc(-c3ccc(OCCN4CCOCC4)nc3)c2)s1 | < 100
CN(C)CCOc1ccc(-c2cccc(NC(=O)Nc3sc(C(C)(C)C)cc3C(=O)N3CCNC(=O)C3(C)C)c2)cn1 | < 100
COc1ccc(-c2cc(NC(=O)Nc3sc(C(C)(C)C)cc3C(=O)N3CCN(C)C(=O)C3(C)C)c(F)cc2C)cn1 | < 100
Cc1ccc(NC(=O)Nc2sc(C(C)(C)C)cc2C(=O)N2CCNC(=O)C2(C)C)cc1C#Cc1ccccn1 | < 100
CCc1ccc(-c2cc(NC(=O)Nc3cn(C(C)(C)C)nc3C(=O)N3CCN(C)C(=O)C3(C)C)cc(F)c2C)cn1 | < 100

The remaining lines, values ahead:

IC50 [nM] | Structure (SMILES)
< 100 | Cc1ccc(NC(=O)Nc2sc(C(C)(C)C)cc2C(=O)N2CCNC(=O)C2(C)C)cc1-c1ccc(C(=O)N(C)C)nc1
< 100 | CCc1ccc(-c2cc(NC(=O)Nc3sc(C(C)(C)C)cc3C(=O)N3CCNC(=O)C3(C)C)ccc2C)cn1
< 100 | COc1ccc(-c2cc(NC(=O)Nc3sc(C(C)(C)C)cc3C(=O)N3CCN(C)C(=O)C3(C)C)ccc2C)cn1
< 100 | Cc1ccc(NC(=O)Nc2cc(C(C)(C)C)sc2C(=O)N2CCNC(=O)C2(C)C)cc1-c1ccc(N2CCOCC2)cn1
< 100 | CCNC(=O)c1ccc(-c2cc(NC(=O)Nc3cc(C(C)(C)C)sc3C(=O)N3CCNC(=O)C3(C)C)ccc2C)cn1
< 100 | Cc1ccc(NC(=O)Nc2sc(C(C)(C)C)cc2C(=O)N2CCNC(=O)C2(C)C)cc1-c1ccc(CN2CCOCC2)cn1
< 100 | CCc1ccc(-c2cc(NC(=O)Nc3sc(C(C)(C)C)cc3C(=O)N3CCN(C)C(=O)C3(C)C)ccc2C)cn1
< 100 | Cc1ccc(-c2ccc(N3CCOCC3)nc2)cc1NC(=O)Nc1sc(C(C)(C)C)cc1C(=O)N1CCNC(=O)C1(C)C
< 100 | Cc1ccc(NC(=O)Nc2sc(C(C)(C)C)cc2C(=O)N2CCN(C)C(=O)C2(C)C)cc1-c1ccc(C(=O)N2CCOCC2)nc1
< 100 | Cc1ccc(NC(=O)Nc2sc(C(C)(C)C)cc2C(=O)N2CCNC(=O)C2(C)C)cc1-c1ccc(F)nc1
< 100 | Cc1ccc(NC(=O)Nc2sc(C(C)(C)C)cc2C(=O)N2CCN(C)C(=O)C2(C)C)cc1-c1ccc(N2CCN(C)CC2)nc1
< 100 | CCNC(=O)c1ccc(-c2cc(NC(=O)Nc3sc(C(C)(C)C)cc3C(=O)N3CCN(C)C(=O)C3(C)C)ccc2C)cn1
< 100 | CC(=O)c1ccc(-c2cc(NC(=O)Nc3sc(C(C)(C)C)cc3C(=O)N3CCNC(=O)C3(C)C)ccc2C)cn1
< 100 | Cc1ccc(NC(=O)Nc2sc(C(C)(C)C)cc2C(=O)N2CCN(C)C(=O)C2(C)C)cc1-c1ccc(N2CCOCC2)nc1
< 100 | COc1ccc(-c2cc(NC(=O)Nc3cc(C(C)(C)C)sc3C(=O)N3CCNC(=O)C3(C)C)ccc2C)cn1
< 100 | Cc1ccc(NC(=O)Nc2sc(C(C)(C)C)cc2C(=O)N2CCNC(=O)C2(C)C)cc1-c1ccc(CN)nc1
< 100 | COCCOc1ccc(-c2cc(NC(=O)Nc3sc(C(C)(C)C)cc3C(=O)N3CCN(C)C(=O)C3(C)C)ccc2C)cn1
< 100 | Cc1ccc(NC(=O)Nc2sc(C(C)(C)C)cc2C(=O)N2CCNC(=O)C2(C)C)cc1-c1ccc(OCCCN2CCN(C)CC2)nc1
< 100 | CCNC(=O)c1ccc(-c2cc(NC(=O)Nc3sc(C(C)(C)C)cc3C(=O)N3CCNC(=O)C3(C)C)ccc2C)cn1
< 100 | CNC(=O)c1ccc(-c2cc(NC(=O)Nc3sc(C(C)(C)C)cc3C(=O)N3CCNC(=O)C3(C)C)ccc2C)cn1
< 100 | Cc1ccc(NC(=O)Nc2sc(C(C)(C)C)cc2C(=O)N2CCNC(=O)C2(C)C)cc1-c1ccc(OCCN(C)C)nc1
< 100 | Cc1ccc(NC(=O)Nc2sc(C(C)(C)C)cc2C(=O)N2CCNC(=O)C2(C)C)cc1-c1ccc(OCCCN2CCOCC2)nc1

IC50 [nM] | Structure (SMILES)
< 100 | Cc1c(NC(=O)Nc2sc(C(C)(C)C)cc2C(=O)N2CCNC(=O)C2(C)C)cccc1-c1ccc(N2CCOCC2)nc1
< 100 | COc1ccc(-c2cc(NC(=O)Nc3sc(C(C)(C)C)cc3C(=O)N3CCNC(=O)C3(C)C)ccc2C)cn1
< 100 | Cc1ccc(NC(=O)Nc2sc(C(C)(C)C)cc2C(=O)N2CCNC(=O)C2(C)C)cc1-c1ccc(C(C)C)nc1
< 100 | Cc1ccc(-c2cc(NC(=O)Nc3sc(C(C)(C)C)cc3C(=O)N3CCNC(=O)C3(C)C)ccc2C)nn1
< 100 | Cc1ccc(NC(=O)Nc2sc(C(C)(C)C)cc2C(=O)N2CCN(C)C(=O)C2(C)C)cc1-c1ccc(CN2CCOCC2)nc1
< 100 | Cc1ccc(NC(=O)Nc2sc(C(C)(C)C)cc2C(=O)N2CCNC(=O)C2(C)C)cc1-c1ccc(N2CCCCC2)nc1
< 100 | Cc1ccc(NC(=O)Nc2sc(C(C)(C)C)cc2C(=O)N2CCNC(=O)C2(C)C)cc1-c1cccc[n+]1[O-]
< 100 | Cc1ccc(NC(=O)Nc2sc(C(C)(C)C)cc2C(=O)N2CCNC(=O)C2(C)C)cc1-c1ccc(N2CCN(C)CC2)nc1
< 100 | Cc1ccc(NC(=O)Nc2sc(C(C)(C)C)cc2C(=O)N2CCN(C)C(=O)C2(C)C)cc1-c1ccc(-n2cccn2)nc1
< 100 | Cc1ccc(-c2cc(NC(=O)Nc3sc(C(C)(C)C)cc3C(=O)N3CCN(C)C(=O)C3(C)C)ccc2C)cn1
< 100 | Cc1ccc(NC(=O)Nc2sc(C(C)(C)C)cc2C(=O)N2CCN(C)C(=O)C2(C)C)cc1-c1ccc(C(C)N2CCOCC2)nc1 (stereo not given)
< 100 | Cc1ccc(NC(=O)Nc2sc(C(C)(C)C)cc2C(=O)N2CCNC(=O)C2(C)C)cc1-c1ccc(N2CCN(C)CC2)cn1
< 100 | CCc1ccc(-c2cc(NC(=O)Nc3sc(C(C)(C)C)cc3C(=O)N3CCNC(=O)C3(C)C)ccc2C)nc1
< 100 | Cc1ccc(NC(=O)Nc2sc(C(C)(C)C)cc2C(=O)N2CCNC(=O)C2(C)C)cc1-c1ccc(C(C)O)nc1 (stereo not given)
< 100 | Cc1ccc(NC(=O)Nc2sc(C(C)(C)C)cc2C(=O)N2CCNC(=O)C2(C)C)cc1-c1ccccn1
< 100 | Cc1ccc(NC(=O)Nc2sc(C(C)(C)C)cc2C(=O)N2CCNC(=O)C2(C)C)cc1-c1ccc(N2CCC(N(C)C)C2)nc1 (stereo not given)
< 100 | C#Cc1cc(NC(=O)Nc2sc(C(C)(C)C)cc2C(=O)N2CCNC(=O)C2(C)C)ccc1C
< 100 | Cc1ccc(NC(=O)Nc2sc(C(C)(C)C)cc2C(=O)N2CCNC(=O)C2(C)C)cc1-c1ccc(NCC(C)C)nc1
< 100 | CC(C)(C)c1cc(C(=O)N2CCNC(=O)C2(C)C)c(NC(=O)Nc2ccc(F)c(-c3ccc(OCCN4CCOCC4)nc3)c2)s1
< 100 | Cc1ccc(NC(=O)Nc2sc(C(C)(C)C)cc2C(=O)N2CCN(C)C(=O)C2(C)C)cc1-c1ccc(C(N)=O)nc1
< 100 | Cc1ccc(NC(=O)Nc2sc(C(C)(C)C)cc2C(=O)N2CCN(C)C(=O)C2(C)C)cc1-c1ccc(NS(C)(=O)=O)nc1
